According to paper PMC6384738, “Structure-Function Studies of Polymyxin B Lipononapeptides” (Molecules, 2019):
Values after ≈ are worked out from the molar mass of the structure shown. Where a SMILES comes first, the peptide text is derived from it. Bridges are numbered along the chain shown (N, C = ends). [ ]: non-standard residue; d: D form. The star is where a group is joined. Isonicotinoyl(2-Ph) = O=C(c1ccnc(-c2ccccc2)c1)*; Benzoyl(4-hexyl) = CCCCCCc1ccc(C(=O)*)cc1; Cit = NC(=O)NCCC[C@H](N)C(=O)O; Octanoyl = CCCCCCCC(=O)*; Orn = NCCC[C@H](N)C(=O)O; Dab = NCC[C@H](N)C(=O)O; Dap = NC[C@H](N)C(=O)O

Key:
[1] = in vitro; conditions: human
Description: (§1) All compounds synthesised in this study were assessed for their minimum inhibitory concentrations (MIC, mg/L) by broth microdilution assay against five antibiotic-sensitive and resistant ATCC reference strains covering the Gram-negative ESKAPE pathogens (Escherichia coli, Klebsiella pneumoniae, A. baumannii, and P. aeruginosa) (Table 1, Table 2 and Table 3). Staphylococcus aureus was also included as a representative Gram-positive bacterial strain. […] Polymyxin B 1, colistin 2, vancomycin and gentamicin were used as positive inhibitor comparator compounds. Compounds were counter-screened against human proximal tubular epithelial cells (HK-2), using LDH release as a general indicator of cellular toxicity.
Cytotoxicity to human kidney proximal tubular epithelial cell line, HK-2 (ATCC CRL-2190, sourced from ATCC; Manassas, VA, USA) was determined using the LDH assay as previously described. In brief, HK-2 cells were seeded as 2000 cells/well in black-walled clear bottom 384-well tissue culture treated plates (Corning, catalogue No. 3712) in DMEM/F12 medium (Gibco® 10565-042) containing 10% of Fetal Bovine Serum (FBS, Gibco® 10099-141) and incubated for 24 h at 37 °C, 5% CO2. Compounds were then added into each well with a concentration series from 300 µM to 2.3 µM in 2-fold dilutions. Colistin and polymyxin B were used as controls and tested at a final concentration range of 1 mM to 7.8 µM. The cells were incubated with the compounds for 24 h at 37 °C, 5% CO2. After the incubation, 5 µL of culture medium was added to 45 µL of LDH assay buffer (Biovision, K313-500) and incubated for 30 min at room temperature. The absorbance (ABS) was then read at 450 nm using a Polar Star Omega plate reader. The data was analysed by Prism 6 software (GraphPad Software, La Jolla, CA, USA). Results were calculated using the following equation: cytotoxicity %= (ABSsamples − ABSuntreated/ABS1%Triton X-100 − ABSuntreated) × 100.

[2] = tested on: P. aeruginosa ATTC 27853; assay: microbe, parasite or virus in culture; conditions: ATTC 27853, 18 h
Description: as §1

[3] = tested on: K. pneumoniae ATCC 13833; assay: microbe, parasite or virus in culture; conditions: ATCC 13833, 18 h
Description: as §1

[4] = tested on: A. baumannii ATCC 19606; assay: microbe, parasite or virus in culture; conditions: ATCC 19606, 18 h
Description: as §1

[5] = tested on: K. pneumoniae BAA 2146; assay: microbe, parasite or virus in culture; conditions: BAA 2146, 18 h
Description: as §1

[6] = tested on: S. aureus ATCC 25923; assay: microbe, parasite or virus in culture; conditions: ATCC 25923, 18 h
Description: as §1

[7] = tested on: K. pneumoniae ATCC 700603; assay: microbe, parasite or virus in culture; conditions: ATCC 700603, 18 h
Description: as §1

[8] = tested on: E. coli ATCC 25922; assay: microbe, parasite or virus in culture; conditions: ATCC 25922, 18 h
Description: as §1

Row | Compound | CC50 at 24 h [1] | MIC P. aeruginosa ATTC 27853 [2] | MIC K. pneumoniae ATCC 13833 [3] | MIC A. baumannii ATCC 19606 [4] | MIC K. pneumoniae BAA 2146 [5] | MIC S. aureus ATCC 25923 [6] | MIC K. pneumoniae ATCC 700603 [7] | MIC E. coli ATCC 25922 [8]
1 | CCCCCCCC(=O)N[C@H](C(=O)N[C@@H](CCCNC(N)=O)C(=O)N[C@H]1CCNC(=O)[C@H]([C@@H](C)O)NC(=O)[C@H](CCN)NC(=O)[C@H](CCN)NC(=O)[C@H](CC(C)C)NC(=O)[C@@H](Cc2ccccc2)NC(=O)[C@H](CCN)NC1=O)[C@@H](C)O [Compound 44] (Octanoyl-T[Cit][Dab][Dab][dF]L[Dab][Dab]T; lactam 3-C) | > 300 µM | >32 µg/mL | >32 µg/mL | >32 µg/mL | 32 µg/mL (≈ 27.9 µM) | >32 µg/mL | >32 µg/mL | 32 µg/mL (≈ 27.9 µM)
2 | CCCCCCCC(=O)N[C@H](C(=O)N[C@H](CO)C(=O)N[C@H]1CCNC(=O)[C@H]([C@@H](C)O)NC(=O)[C@H](CCN)NC(=O)[C@H](CCN)NC(=O)[C@H](CC(C)C)NC(=O)[C@@H](Cc2ccccc2)NC(=O)[C@H](CCN)NC1=O)[C@@H](C)O [Compound 36] (Octanoyl-T[dS][Dab][Dab][dF]L[Dab][Dab]T; lactam 3-C) | 213 µM | 16 µg/mL (≈ 14.9 µM) | >32 µg/mL | 32 µg/mL (≈ 29.7 µM) | 16 µg/mL (≈ 14.9 µM) | >32 µg/mL | >32 µg/mL | 4 µg/mL (≈ 3.72 µM)
3 | CCCCCCCC(=O)N[C@H](C(=O)N[C@@H](CCCN)C(=O)N[C@H]1CCNC(=O)[C@H]([C@@H](C)O)NC(=O)[C@H](CCN)NC(=O)[C@H](CCN)NC(=O)[C@H](CC(C)C)NC(=O)[C@@H](Cc2ccccc2)NC(=O)[C@H](CCN)NC1=O)[C@@H](C)O [Compound 40] (Octanoyl-T[Orn][Dab][Dab][dF]L[Dab][Dab]T; lactam 3-C) | > 300 µM | 2 µg/mL (≈ 1.81 µM) | 8 µg/mL (≈ 7.25 µM) | 16 µg/mL (≈ 14.5 µM) | 4 µg/mL (≈ 3.63 µM) | >32 µg/mL | 4 µg/mL (≈ 3.63 µM) | 2 µg/mL (≈ 1.81 µM)
4 | CCCCCCCC(=O)N[C@H](C(=O)N[C@@H](CCCNC(=N)N)C(=O)N[C@H]1CCNC(=O)[C@H]([C@@H](C)O)NC(=O)[C@H](CCN)NC(=O)[C@H](CCN)NC(=O)[C@H](CC(C)C)NC(=O)[C@@H](Cc2ccccc2)NC(=O)[C@H](CCN)NC1=O)[C@@H](C)O [Compound 45] (Octanoyl-TR[Dab][Dab][dF]L[Dab][Dab]T; lactam 3-C) | > 300 µM | 4 µg/mL (≈ 3.49 µM) | >32 µg/mL | 32 µg/mL (≈ 27.9 µM) | 16 µg/mL (≈ 14 µM) | >32 µg/mL | 8 µg/mL (≈ 6.98 µM) | 2 µg/mL (≈ 1.75 µM)
5 | CCCCCCCC(=O)N[C@H](C(=O)N[C@@H](CN)C(=O)N[C@H]1CCNC(=O)[C@H]([C@@H](C)O)NC(=O)[C@H](CCN)NC(=O)[C@H](CCN)NC(=O)[C@H](CC(C)C)NC(=O)[C@@H](Cc2ccccc2)NC(=O)[C@H](CCN)NC1=O)[C@@H](C)O [Compound 39] (Octanoyl-T[Dap][Dab][Dab][dF]L[Dab][Dab]T; lactam 3-C) | 290 µM | 1 µg/mL (≈ 0.93 µM) | 1 µg/mL (≈ 0.93 µM) | 1 µg/mL (≈ 0.93 µM) | 0.5 µg/mL (≈ 0.465 µM) | >32 µg/mL | 1 µg/mL (≈ 0.93 µM) | 1 µg/mL (≈ 0.93 µM)
6 | CCCCCCCC(=O)N[C@@H](CCN)C(=O)N[C@H](C(=O)N[C@H]1CCNC(=O)[C@H]([C@@H](C)O)NC(=O)[C@H](CCN)NC(=O)[C@H](CCN)NC(=O)[C@H](CC(C)C)NC(=O)[C@@H](Cc2ccccc2)NC(=O)[C@H](CCN)NC1=O)[C@@H](C)O [Compound 9] (Octanoyl-[Dab]T[Dab][Dab][dF]L[Dab][Dab]T; lactam 3-C) | 79 µM | 32 µg/mL (≈ 29.4 µM) | >32 µg/mL | >32 µg/mL | >32 µg/mL | >32 µg/mL | >32 µg/mL | >32 µg/mL
7 | CC(C)C[C@@H]1NC(=O)[C@@H](Cc2ccccc2)NC(=O)[C@H](CCN)NC(=O)[C@@H](NC(=O)[C@H](CCN)NC(=O)[C@@H](NC(=O)c2ccnc(-c3ccccc3)c2)[C@@H](C)O)CCNC(=O)[C@H]([C@@H](C)O)NC(=O)[C@H](CCN)NC(=O)[C@H](CCN)NC1=O [Compound 10] ({Isonicotinoyl(2-Ph)}-T[Dab][Dab][Dab][dF]L[Dab][Dab]T; lactam 3-C) | > 300 µM | 1 µg/mL (≈ 0.874 µM) | >32 µg/mL | >32 µg/mL | 16 µg/mL (≈ 14 µM) | >32 µg/mL | 16 µg/mL (≈ 14 µM) | 4 µg/mL (≈ 3.5 µM)
8 | CCCCCCCC(=O)N[C@H](C(=O)N[C@@H](Cc1c[nH]cn1)C(=O)N[C@H]1CCNC(=O)[C@H]([C@@H](C)O)NC(=O)[C@H](CCN)NC(=O)[C@H](CCN)NC(=O)[C@H](CC(C)C)NC(=O)[C@@H](Cc2ccccc2)NC(=O)[C@H](CCN)NC1=O)[C@@H](C)O [Compound 47] (Octanoyl-TH[Dab][Dab][dF]L[Dab][Dab]T; lactam 3-C) | > 300 µM | 16 µg/mL (≈ 14.2 µM) | >32 µg/mL | >32 µg/mL | 16 µg/mL (≈ 14.2 µM) | >32 µg/mL | 32 µg/mL (≈ 28.4 µM) | 4 µg/mL (≈ 3.55 µM)
9 | CCCCCCc1ccc(C(=O)N[C@H](C(=O)N[C@@H](CCN)C(=O)N[C@H]2CCNC(=O)[C@H]([C@@H](C)O)NC(=O)[C@H](CCN)NC(=O)[C@H](CCN)NC(=O)[C@H](CC(C)C)NC(=O)[C@@H](Cc3ccccc3)NC(=O)[C@H](CCN)NC2=O)[C@@H](C)O)cc1 [Compound 12] ({Benzoyl(4-hexyl)}-T[Dab][Dab][Dab][dF]L[Dab][Dab]T; lactam 3-C) | 46 µM | 1 µg/mL (≈ 0.868 µM) | 16 µg/mL (≈ 13.9 µM) | 32 µg/mL (≈ 27.8 µM) | 2 µg/mL (≈ 1.74 µM) | 8 µg/mL (≈ 6.95 µM) | 4 µg/mL (≈ 3.47 µM) | 2 µg/mL (≈ 1.74 µM)
10 | CCCCCCCC(=O)N[C@H](C(=O)N[C@@H](CCCCN)C(=O)N[C@H]1CCNC(=O)[C@H]([C@@H](C)O)NC(=O)[C@H](CCN)NC(=O)[C@H](CCN)NC(=O)[C@H](CC(C)C)NC(=O)[C@@H](Cc2ccccc2)NC(=O)[C@H](CCN)NC1=O)[C@@H](C)O [Compound 42] (Octanoyl-TK[Dab][Dab][dF]L[Dab][Dab]T; lactam 3-C) | > 300 µM | 4 µg/mL (≈ 3.58 µM) | 16 µg/mL (≈ 14.3 µM) | 32 µg/mL (≈ 28.6 µM) | 8 µg/mL (≈ 7.16 µM) | >32 µg/mL | 16 µg/mL (≈ 14.3 µM) | 4 µg/mL (≈ 3.58 µM)
